Test system: Folylpolyglutamate synthase (Sus scrofa)
Test: The ratio of Kinetic constant Vmax / Binding constant Km at homogenous Hog Liver Folyl polyglutamate Synthetase (FPGS).

Ratio	Structure (SMILES)
121	NCCCC(NC(=O)c1ccc(NCc2ccc3nc(N)nc(O)c3c2C(F)(F)F)cc1)C(=O)O (centres undefined)
118	NCCCC(NC(=O)c1ccc(CNc2ccc3nc(N)nc(O)c3c2C(F)(F)F)cc1)C(=O)O (centres undefined)
102	NCCCC(NC(=O)c1ccc(CNc2ccc3nc(N)nc(O)c3c2Cl)cc1)C(=O)O (centres undefined)
64	NCCCC(NC(=O)c1ccc(CNc2ccc3nc(N)nc(O)c3c2F)cc1)C(=O)O (centres undefined)

Reference: ChEMBL document CHEMBL1125340, “Inhibition of hog liver folylpolyglutamate synthetase by 5-substituted 5,8-dideaza analogues of folic acid bearing a terminal L-ornithine residue” (J Med Chem, 1992)
